These results are taken from PubChem BioAssay AID1996.

≈ marks a conversion by molar mass, not a printed value.

For this data set the following is noted: buffer; pH 7.4; 200.0 µM.
For orientation: kinetic solubility means solubility judged after dilution from a stock solution rather than from solid. `O=[N+]([O-])c1ccc(-c2cn3ccccc3n2)cc1` had a solubility (kinetic) of 1.7 µg/mL (≈ 7.11 µM).

With `Cc1ccc(S(=O)(=O)[O-])cc1.Cn1cc[n+](C)c1COc1ccc(C=O)cc1`, the kinetic solubility was above 60.4 µg/mL.

Compound `CCOc1ccc2nc(SCC(=O)NCc3ccccc3)[nH]c2c1` had a solubility (kinetic) of 44.3 µg/mL (≈ 130 µM).

`CCNC(=S)NC(=NCc1cccnc1)Nc1nc(C)cc(C)n1`: the kinetic solubility was 46.7 µg/mL (≈ 136 µM).

For the compound `NC(=O)c1cc(S(=O)(=O)NCc2ccccc2)cs1`, the kinetic solubility was above 44.5 µg/mL.

`Cc1cc(NC(=O)C2CC(=O)N(c3ccccc3C)C2)no1` (stereo not given) came in with a kinetic solubility above 44.9 µg/mL.

For the compound `O=C(O)C(Cc1ccccc1)n1c(=S)[nH]c2ccccc2c1=O` (stereo not given), the solubility (kinetic) was above 49 µg/mL.

`CSc1ncccc1C(=O)OC(C)C(=O)Nc1cccc(S(=O)(=O)N2CCOCC2)c1` (stereo not given): the solubility (kinetic) amounted to 8.4 µg/mL (≈ 18 µM).

In the case of `CCOC(=O)c1oc2ccccc2c1NC(=O)C(C)(C)C`, the solubility (kinetic) is 22.6 µg/mL (≈ 78.1 µM).

`Clc1ccccc1OCCCCN1CCNCC1.O=C(O)C(=O)O` returned a kinetic solubility above 53.8 µg/mL.

In turn, `Cc1nc(Cl)c(C(=O)NCc2ccccc2)c(C)c1Cl` displayed a kinetic solubility of 35.6 µg/mL (≈ 115 µM).

The compound `O=S(=O)(NCc1ccccc1)c1ccc2ccccc2c1` had a solubility (kinetic) of 1.1 µg/mL (≈ 3.7 µM).

In turn, `Cc1cc(S(=O)(=O)c2ccc([N+](=O)[O-])cn2)ccc1Br` returned a kinetic solubility of 1.7 µg/mL (≈ 4.76 µM).

With `O=C(/C=C/c1ccc(F)cc1)N1CCCc2ccccc21`, the kinetic solubility was 18.5 µg/mL (≈ 65.8 µM).

On to `Cc1ccc(NS(=O)(=O)N2CCOCC2)c(C)c1`, for which the kinetic solubility was above 40.6 µg/mL.

With `Cc1ccc(C(=O)O)cc1NC(=S)NCCc1ccccc1`, the kinetic solubility was above 47.2 µg/mL.

`CC(C)NC(=O)COc1nncc2ccccc12` displayed a kinetic solubility above 36.8 µg/mL.

`Cc1ccc(S(=O)(=O)NCCC(=O)NNc2c(F)c(F)cc(F)c2F)cc1` gave a kinetic solubility above 60.8 µg/mL.

Compound `COc1ccccc1S(=O)(=O)Nc1ccc2nc(C)sc2c1` displayed a kinetic solubility of 10.4 µg/mL (≈ 31.1 µM).

`CN(C)CCCNc1nc(-c2ccc(Cl)cc2)nc2ccccc12` displayed a solubility (kinetic) of 41.7 µg/mL (≈ 122 µM).

Take `O=C(NC(=S)N1CCc2ccccc21)c1ccccc1Cl`: the kinetic solubility is 46.6 µg/mL (≈ 147 µM).

Compound `Cn1cc(-c2ccccc2C(N)=O)c(=O)c2ccccc21` yielded a solubility (kinetic) above 41.7 µg/mL.

In turn, `O=C(O)CCC(=O)Nc1ccc(-c2nc3ccc(C(=O)c4ccccc4)cc3[nH]2)cc1` yielded a kinetic solubility of 60.1 µg/mL (≈ 145 µM).

In turn, `c1cncc(CNc2nc(-c3cccnc3)nc3ccccc23)c1` came in with a solubility (kinetic) above 47 µg/mL.

For `CC(=O)Oc1ccc2c(=O)oc(-c3ccccc3C)nc2c1`, the solubility (kinetic) was 8.4 µg/mL (≈ 28.4 µM).

`O=S(=O)(Nc1ccncc1Cl)c1cc(Cl)ccc1Cl` returned a solubility (kinetic) above 50.6 µg/mL.

Take `COc1ccc(C(C)(C)C)cc1NC(=O)COC(=O)C(C)C`: the solubility (kinetic) came to 33.1 µg/mL (≈ 108 µM).

Compound `Cc1[nH]c2ccc(Br)cc2c(=S)c1C/C=C/Cl` gave a solubility (kinetic) of 5.3 µg/mL (≈ 16.1 µM).

`CCSc1nnc(SCC(=O)Nc2cc(C)on2)s1` had a kinetic solubility above 47.5 µg/mL.

Take `O=C(c1ccc(Cl)c(S(=O)(=O)N2CCOCC2)c1)N1CCCCCC1`: the kinetic solubility stood at 52.2 µg/mL (≈ 135 µM).

Regarding `COc1ccc(Cl)cc1C(=O)OCC(=O)Nc1sccc1C(N)=O`, the solubility (kinetic) is 6.6 µg/mL (≈ 17.9 µM).

For `O=[N+]([O-])c1ncccc1OCc1ccccc1Br`, the kinetic solubility was found to be 5.7 µg/mL (≈ 18.4 µM).

In turn, `CCOc1ccc(N/C=C/C(=O)c2ccc(OC)c(OC)c2)cc1` had a kinetic solubility of 2.2 µg/mL (≈ 6.72 µM).

Take `OCCN1CNC(=S)NC1`: the kinetic solubility was found to be 22.8 µg/mL (≈ 141 µM).

`CN1CCCN(c2ccc([N+](=O)[O-])nc2)CC1` came in with a kinetic solubility above 35.4 µg/mL.

Compound `CN1C2CCC1CC(OC(c1ccccc1)c1ccccc1N)C2` (stereo not given) registered a kinetic solubility above 48.4 µg/mL.

As to `O=S(=O)(c1cnccc1N1CCN(CCO)CC1)N1CCCCC1`, the solubility (kinetic) is above 53.2 µg/mL.

In turn, `Cc1ccc(Nc2nc(N)c3ccccc3n2)cc1C.Cl` registered a solubility (kinetic) of 5.9 µg/mL.

`CC1CCN(C(=O)COC(=O)c2ccc(Cl)nc2)CC1` came in with a solubility (kinetic) above 44.5 µg/mL.

In the case of `Cc1cc(C(=O)COC(=O)CC(NC(N)=O)c2ccc(Cl)cc2)c(C)n1C` (stereo not given), the kinetic solubility was 29.2 µg/mL (≈ 74.5 µM).

For the compound `CN(C)S(=O)(=O)c1cccc(NC(=O)COc2ccc(S(=O)(=O)N3CCOCC3)cc2Cl)c1`, the kinetic solubility came to 5.4 µg/mL (≈ 10.4 µM).

The compound `Nc1cc(=O)[nH]c(SCC(=O)Nc2cccc(S(=O)(=O)N3CCCCC3)c2)n1` displayed a solubility (kinetic) above 63.5 µg/mL.

`CCn1c(CCc2ccccc2)nc2ccccc21.Cl`: the solubility (kinetic) was determined as 28.4 µg/mL.

Take `CCCc1cc(=O)[nH]c(Nc2ccc(Cl)cc2)n1`: the solubility (kinetic) was 4.4 µg/mL (≈ 16.7 µM).

For the compound `CCN(Cc1cc(=O)oc2cc(C)ccc12)c1ccccc1`, the kinetic solubility was 2 µg/mL (≈ 6.82 µM).

For `Cc1cc(C)nc(Nc2ccc(Br)cc2C(=O)O)n1.Cl`, the kinetic solubility is above 53.8 µg/mL.

`CCN(CC(=O)Nc1ccc2c(c1)OCCO2)C(=O)c1ccccc1Br` displayed a solubility (kinetic) above 62.9 µg/mL.

`CN(C(=O)c1ccco1)c1ccccc1C(=O)O` gave a kinetic solubility above 36.8 µg/mL.

`Cc1ccc(O)c(N/C=C/C(=O)c2ccc(F)cc2)c1` came in with a kinetic solubility of 1.1 µg/mL (≈ 4.05 µM).

The compound `Cc1onc(-c2c(Cl)cccc2Cl)c1C(=O)Nc1nccs1` came in with a kinetic solubility of 4.7 µg/mL (≈ 13.3 µM).

Regarding `CN(CC(=O)Nc1ccc(F)cc1)CC(=O)N1CCCCC1`, the kinetic solubility was above 46.1 µg/mL.

`c1ccc2c3c([nH]c2c1)CNCC3` showed a kinetic solubility above 25.8 µg/mL.

Turning to `Cc1ccc(Cc2nc3ccccc3[nH]2)cc1`, the solubility (kinetic) worked out at 31.8 µg/mL (≈ 143 µM).

With `CC(=O)Nc1cccc(NS(=O)(=O)c2c(C)noc2C)c1`, the kinetic solubility was above 46.4 µg/mL.

As for `Cn1c(C(=O)O)c(S(=O)(=O)c2ccc(Cl)cc2)c2ccccc21`, the kinetic solubility turned out to be 51.8 µg/mL (≈ 148 µM).

`Nc1ncnc(Sc2ncccn2)c1[N+](=O)[O-]`: the kinetic solubility is above 37.5 µg/mL.

Compound `Cc1ccccc1Cn1c(C)cc(C)c(C#N)c1=O` yielded a kinetic solubility of 8.1 µg/mL (≈ 32.1 µM).

`CCc1ccc(C(C)NC(=O)c2cccs2)cc1` (stereo not given): the kinetic solubility came out at 9 µg/mL (≈ 34.7 µM).

As for `O=C(Nc1ccncc1)c1ccc([N+](=O)[O-])cc1Cl`, the solubility (kinetic) was 17.6 µg/mL (≈ 63.4 µM).

`Nc1cc(N2CCCCCC2)c2nonc2c1[N+](=O)[O-]` yielded a kinetic solubility of 0.9 µg/mL (≈ 3.25 µM).

Regarding `Cc1ccc2cc(NC(=O)c3ccccc3C)ccc2n1`, the solubility (kinetic) was 37.4 µg/mL (≈ 135 µM).

Consider `COc1ccc(C)cc1COC(=O)c1[nH]c(C)c(C(C)=O)c1C`, for which the kinetic solubility was above 47.3 µg/mL.

Consider `CC(NC(=O)c1ccncc1)c1ccccc1` (stereo not given), for which the kinetic solubility amounted to 26.5 µg/mL (≈ 117 µM).

In turn, `O=C(NC(=O)c1ccccc1)OCCN1C(=O)c2ccccc2C1=O` showed a kinetic solubility above 50.7 µg/mL.

Consider `COc1ccccc1CNC(=O)CCc1ccccc1`, for which the solubility (kinetic) is above 40.4 µg/mL.

On to `CCOC(=O)c1csc(COc2ccc(OC)cc2)n1`, for which the kinetic solubility is 11.3 µg/mL (≈ 38.5 µM).

Compound `COCc1cc(C)nc(Oc2ccccc2)c1C#N` had a solubility (kinetic) above 38.1 µg/mL.

On to `CC(=O)C1=C(O)CCCC1=NCc1nc2ccccc2[nH]1`, for which the kinetic solubility is above 42.5 µg/mL.

`N#Cc1cc(-c2ccccc2)nc(N2CCNCC2)n1` yielded a solubility (kinetic) above 39.8 µg/mL.

`COc1ccc(N(CC(=O)Nc2cccnc2)S(=O)(=O)c2ccccc2)cc1Cl` registered a solubility (kinetic) of 34.2 µg/mL (≈ 79.2 µM).

`CCOC(=O)c1cc(C)n(-c2ccccc2)c1C` gave a solubility (kinetic) of 3 µg/mL (≈ 12.3 µM).

The compound `Cl.c1ccc2c(c1)CN1CCCC1=N2` had a kinetic solubility above 31.3 µg/mL.

The compound `Cc1cc(C)n(CCCNC(=O)c2ccc(C)o2)n1` registered a solubility (kinetic) above 39.2 µg/mL.

`CCOc1cccc(C(=O)N/N=C/c2ccoc2)c1` returned a solubility (kinetic) above 38.7 µg/mL.

The compound `NC(=O)C1CCN(C(=O)CC2(CC(=O)O)CCCC2)CC1` registered a solubility (kinetic) above 44.5 µg/mL.

The compound `O=C(CCc1nc(-c2ccccc2)no1)Nc1cccnc1` gave a solubility (kinetic) above 44.1 µg/mL.

As for `CCNC(=O)CC1C(=O)N(c2ccccc2)C(=O)N1CCOC` (stereo not given), the solubility (kinetic) is above 47.9 µg/mL.

The compound `O=C(Nc1cccc(O)c1)c1cccc(NC(=O)c2cccs2)c1` registered a solubility (kinetic) above 50.8 µg/mL.

`CCOc1ncc(S(=O)(=O)N2CCN(CC)CC2)cc1C(=O)O` showed a kinetic solubility above 51.5 µg/mL.

`CCCS(=O)(=O)Nc1cccc(-c2cn3c(n2)SCC3)c1` had a kinetic solubility above 48.5 µg/mL.

On to `Cc1cccc(Cl)c1NC(=S)NCCc1ccccn1`, for which the solubility (kinetic) is above 45.9 µg/mL.

The compound `CC(O)c1cccc(NC(=O)CCCc2ccccc2)c1` (stereo not given) showed a solubility (kinetic) of 39 µg/mL (≈ 138 µM).

Take `N#CC(=C=[N-])c1nc2ccccc2nc1-[n+]1cccc(NC(=O)c2cccs2)c1`: the kinetic solubility amounted to 1.5 µg/mL (≈ 3.78 µM).

As to `Cc1nc([N+](=O)[O-])cn1Cc1cccc2ccccc12`, the solubility (kinetic) is 2.5 µg/mL (≈ 9.35 µM).

Regarding `COc1ccc(OCC(=O)Nc2ccc3c(c2)C(=O)NC3=O)cc1`, the kinetic solubility was determined as 2.4 µg/mL (≈ 7.36 µM).

`N=c1oc2cc(O)ccc2cc1C(=O)Nc1ccc(F)cc1` yielded a solubility (kinetic) of 1.5 µg/mL (≈ 5.03 µM).

As to `Cc1[nH]c(=S)c(C#N)c(C)c1Cc1ccccc1`, the solubility (kinetic) came to 8.6 µg/mL (≈ 33.8 µM).

In turn, `COc1ccc(NC(=S)N2CCc3ccccc3C2)cc1OC` displayed a kinetic solubility of 1.9 µg/mL (≈ 5.78 µM).

`CCn1c2ccccc2c2cc(NC(=O)c3ccc(=O)oc3)ccc21` returned a kinetic solubility of 1.2 µg/mL (≈ 3.61 µM).

Turning to `CCCOCc1ccc(O)c2ncccc12`, the kinetic solubility was 19.6 µg/mL (≈ 90.2 µM).

Turning to `COc1ccc(C)cc1NC(=O)CCNC(=O)c1ccco1`, the kinetic solubility was above 45.3 µg/mL.

As for `Cc1cccc(C)c1NC(=O)CCn1cnc2ccccc2c1=O`, the solubility (kinetic) was above 48.2 µg/mL.

The compound `Cc1ccc(C(=O)OCC(=O)NC2CCCCC2)s1` showed a solubility (kinetic) above 42.2 µg/mL.

`Cc1ccc2c(c1)N(CC(=O)N1CCCC1)C(=O)C(C)O2` (stereo not given): the solubility (kinetic) was above 43.3 µg/mL.

The compound `Cc1cc2oc(=O)cc(CN3CCCCC3)c2cc1C` displayed a solubility (kinetic) below 0.6 µg/mL.

Consider `c1ccc(CNc2nc(-c3cccnc3)nc3ccccc23)cc1`, for which the kinetic solubility came to 13.6 µg/mL (≈ 43.5 µM).

Regarding `O=S(=O)(NCc1cn2ccccc2n1)c1ccccc1F`, the kinetic solubility is above 45.8 µg/mL.

Turning to `O=C(NC1CCCCC1)c1cc(-c2ccc(F)cc2)on1`, the solubility (kinetic) is below 0.3 µg/mL.

On to `NC(=O)c1ccc(Oc2ccc(Cl)cc2)c([N+](=O)[O-])c1`, for which the kinetic solubility was 2 µg/mL (≈ 6.83 µM).

`CC(=O)Nc1ccc(S(=O)(=O)NCCc2c[nH]c3ccc(C)cc23)cc1` displayed a solubility (kinetic) of 33.8 µg/mL (≈ 91 µM).

`CCCCN(CCCC)c1ncnc2nc[nH]c12`: the solubility (kinetic) came to 29.8 µg/mL (≈ 120 µM).

As to `C/C(=N\NC(=O)c1ccncc1)c1cccnc1`, the kinetic solubility is above 36 µg/mL.

Take `Cc1ccc(CNC(=O)CCCC(=O)c2ccccc2)cc1`: the solubility (kinetic) amounted to 7.9 µg/mL (≈ 26.7 µM).

`CN1C(=O)c2ccc(C(=O)NCc3ccco3)cc2C1=O` came in with a solubility (kinetic) above 42.6 µg/mL.

`Cc1nc(Cc2ccc(OC(C)C)cc2)[nH]c(=O)c1CC(=O)O` yielded a solubility (kinetic) above 47.5 µg/mL.
